Data set [1] has as its target T1, NaV1.1 (Homo sapiens (Human), UniProt P35498). The data set is described as follows: Sodium Influx Assay (Flux), NaV1.1. The format is cell-based. As to conditions: Trex HEK293 cells, ANG2 dye; arithmetic mean.
Data set [2] addresses T2, NaV1.6 (Homo sapiens (Human), UniProt Q9UQD0). The experiment in a line: Electrophysiological Assay (EP), patch voltage clamp, NaV1.6. The format is cell-based. As to conditions: HEK-293 cells, whole-cell patch clamp, inactivated state; arithmetic mean. An excerpt:
Patch voltage clamp electrophysiology allows for the direct measurement and quantification of block of voltage-gated sodium channels (Nay's), and allows the determination of the time-and voltage-dependence of block which has been interpreted as differential binding to the resting, open, and inactivated states of the sodium channel (Hille, B., Journal of General Physiology (1977), 69: 497-515).
NaV1.1, NaV1.5 and NaV1.6 cDNAs (NM_001165964 (SCN1A), NM_000335 (SCN5A) and NM_014191 (SCN8A), respectively) were stably expressed in HEK-293 cells.
(§1) Sodium currents were measured using the patch clamp technique in the whole-cell configuration using either a PatchXpress automated voltage clamp or manually using an Axopatch 200B (Axon Instruments) or Model 2400 (A-M systems) amplifier.
The manual voltage clamp protocol was as follows: Borosilicate glass micropipettes were fire-polished to a tip diameter yielding a resistance of 2-4 Mohms in the working solutions. […] In some studies, the external sodium was reduced by equimolar replacement with choline. Osmolarity in the CsF internal and NaCl external solutions was adjusted to 300 mOsm/kg and 310 mOsm/kg with glucose, respectively. All recordings were performed at ambient temperature in a bath chamber with a volume of 150 μL. Control sodium currents were measured in 0.5% DMSO. Controls and representative compounds of the invention were applied to the recording chamber through a 4-pinch or 8-pinch valve bath perfusion system manufactured by ALA Scientific Instruments.
Currents were recorded at 40 kHz sampling frequency, filtered at […], and stored using a Digidata-1322A analogue/digital interface with the pClamp software (Axon Instruments). Series resistance compensation was applied (60-80%). […] All statistics in this study are given as mean±SD.
The membrane potential was maintained at a voltage where inactivation of the channel is complete. The voltage is then stepped back to a very negative (Vhold=−150 mV) voltage for 20 ms and then a test pulse is applied to quantify the compound block. The 20 ms brief repolarization was long enough for compound-free channels to completely recover from fast inactivation, but the compound-bound channels recovered more slowly such that negligible recovery could occur during this interval. The percent decrease in sodium current following wash-on of compound was taken as the percent block of sodium channels.
(The patch-clamp technique gives a direct electrical read-out from membranes.)

Data set [3] has as its target T1, NaV1.1. The data set is described as follows: Electrophysiological Assay (EP), patch voltage clamp, NaV1.1. The format is cell-based. As to conditions: HEK-293 cells, whole-cell patch clamp, inactivated state; arithmetic mean. As to the method:
as §1
In some studies, the external sodium was reduced by equimolar replacement with choline. […] All recordings were performed at ambient temperature in a bath chamber with a volume of 150 μL. Control sodium currents were measured in 0.5% DMSO. Controls and representative compounds of the invention were applied to the recording chamber through a 4-pinch or 8-pinch valve bath perfusion system manufactured by ALA Scientific Instruments.
Series resistance compensation was applied (60-80%). […] All statistics in this study are given as mean±SD.
The membrane potential was maintained at a voltage where inactivation of the channel is complete. The voltage is then stepped back to a very negative (Vhold=−150 mV) voltage for 20 ms and then a test pulse is applied to quantify the compound block. […] The percent decrease in sodium current following wash-on of compound was taken as the percent block of sodium channels.

Data set [4] addresses T2, NaV1.6. The data set is described as follows: Sodium Influx Assay (Flux), NaV1.6. The settings on record: read-out: Flux NaV1.6 IC50; Trex HEK293 cells, ANG2 dye; arithmetic mean.
Data set [5] has as its target NaV1.5 (Homo sapiens (Human), UniProt Q14524). The experiment in a line: Sodium Influx Assay (Flux), NaV1.5. As to conditions: read-out: Flux NaV1.5 IC50; Trex HEK293 cells, ANG2 dye; arithmetic mean.

Structures can show the parent of a compound that is named as a salt.

T2 sequence (Q9UQD0 whole entry): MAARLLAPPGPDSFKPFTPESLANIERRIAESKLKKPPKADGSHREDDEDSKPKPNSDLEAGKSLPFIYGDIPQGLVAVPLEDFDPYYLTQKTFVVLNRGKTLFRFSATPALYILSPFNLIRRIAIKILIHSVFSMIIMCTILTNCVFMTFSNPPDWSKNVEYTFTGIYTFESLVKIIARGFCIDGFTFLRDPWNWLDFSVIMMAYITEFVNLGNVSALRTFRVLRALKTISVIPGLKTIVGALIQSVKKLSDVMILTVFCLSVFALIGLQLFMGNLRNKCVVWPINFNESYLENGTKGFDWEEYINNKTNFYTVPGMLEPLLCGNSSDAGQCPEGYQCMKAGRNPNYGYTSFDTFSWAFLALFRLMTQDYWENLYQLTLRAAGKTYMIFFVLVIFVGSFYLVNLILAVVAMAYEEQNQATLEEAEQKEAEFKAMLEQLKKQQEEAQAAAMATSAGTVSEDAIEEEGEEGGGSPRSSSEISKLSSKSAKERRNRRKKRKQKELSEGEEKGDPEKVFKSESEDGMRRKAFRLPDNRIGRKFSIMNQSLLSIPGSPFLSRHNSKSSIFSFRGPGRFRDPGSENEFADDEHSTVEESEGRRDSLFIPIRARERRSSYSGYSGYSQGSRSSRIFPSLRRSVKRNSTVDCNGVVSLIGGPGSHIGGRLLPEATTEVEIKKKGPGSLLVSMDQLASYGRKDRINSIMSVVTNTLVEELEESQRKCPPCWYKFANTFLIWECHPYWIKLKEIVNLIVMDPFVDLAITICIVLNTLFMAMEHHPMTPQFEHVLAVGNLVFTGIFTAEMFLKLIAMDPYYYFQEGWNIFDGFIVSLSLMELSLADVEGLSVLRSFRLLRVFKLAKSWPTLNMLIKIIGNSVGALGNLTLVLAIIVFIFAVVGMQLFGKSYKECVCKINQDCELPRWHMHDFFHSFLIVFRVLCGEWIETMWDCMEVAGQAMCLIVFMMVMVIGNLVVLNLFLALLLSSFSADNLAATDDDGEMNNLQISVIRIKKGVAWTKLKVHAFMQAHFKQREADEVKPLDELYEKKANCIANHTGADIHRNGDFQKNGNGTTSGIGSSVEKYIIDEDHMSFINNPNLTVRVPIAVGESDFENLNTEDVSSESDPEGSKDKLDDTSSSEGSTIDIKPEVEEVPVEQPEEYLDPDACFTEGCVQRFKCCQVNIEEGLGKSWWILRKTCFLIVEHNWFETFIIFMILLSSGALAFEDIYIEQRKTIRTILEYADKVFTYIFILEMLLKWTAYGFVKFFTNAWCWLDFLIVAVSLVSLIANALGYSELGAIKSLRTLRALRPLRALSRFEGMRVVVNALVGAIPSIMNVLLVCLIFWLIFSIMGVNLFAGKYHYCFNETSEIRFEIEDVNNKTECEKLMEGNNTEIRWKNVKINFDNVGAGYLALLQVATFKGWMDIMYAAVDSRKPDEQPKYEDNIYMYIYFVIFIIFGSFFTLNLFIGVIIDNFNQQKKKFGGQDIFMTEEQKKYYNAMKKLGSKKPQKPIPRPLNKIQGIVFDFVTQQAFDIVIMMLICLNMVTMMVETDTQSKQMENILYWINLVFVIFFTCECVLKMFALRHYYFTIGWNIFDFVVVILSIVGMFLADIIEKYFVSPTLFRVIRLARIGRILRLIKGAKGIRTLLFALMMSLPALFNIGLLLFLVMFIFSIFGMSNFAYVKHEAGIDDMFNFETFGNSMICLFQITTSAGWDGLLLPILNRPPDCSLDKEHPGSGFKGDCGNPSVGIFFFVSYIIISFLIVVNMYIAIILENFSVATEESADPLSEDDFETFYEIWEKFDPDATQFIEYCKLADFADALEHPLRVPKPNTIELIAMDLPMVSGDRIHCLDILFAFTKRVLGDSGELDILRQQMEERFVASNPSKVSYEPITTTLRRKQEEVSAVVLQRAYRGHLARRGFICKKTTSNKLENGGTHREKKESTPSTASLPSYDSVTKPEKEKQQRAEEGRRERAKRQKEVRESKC
NaV1.5, sequence (Q14524 other isoform, or with tags, fused parts or gaps): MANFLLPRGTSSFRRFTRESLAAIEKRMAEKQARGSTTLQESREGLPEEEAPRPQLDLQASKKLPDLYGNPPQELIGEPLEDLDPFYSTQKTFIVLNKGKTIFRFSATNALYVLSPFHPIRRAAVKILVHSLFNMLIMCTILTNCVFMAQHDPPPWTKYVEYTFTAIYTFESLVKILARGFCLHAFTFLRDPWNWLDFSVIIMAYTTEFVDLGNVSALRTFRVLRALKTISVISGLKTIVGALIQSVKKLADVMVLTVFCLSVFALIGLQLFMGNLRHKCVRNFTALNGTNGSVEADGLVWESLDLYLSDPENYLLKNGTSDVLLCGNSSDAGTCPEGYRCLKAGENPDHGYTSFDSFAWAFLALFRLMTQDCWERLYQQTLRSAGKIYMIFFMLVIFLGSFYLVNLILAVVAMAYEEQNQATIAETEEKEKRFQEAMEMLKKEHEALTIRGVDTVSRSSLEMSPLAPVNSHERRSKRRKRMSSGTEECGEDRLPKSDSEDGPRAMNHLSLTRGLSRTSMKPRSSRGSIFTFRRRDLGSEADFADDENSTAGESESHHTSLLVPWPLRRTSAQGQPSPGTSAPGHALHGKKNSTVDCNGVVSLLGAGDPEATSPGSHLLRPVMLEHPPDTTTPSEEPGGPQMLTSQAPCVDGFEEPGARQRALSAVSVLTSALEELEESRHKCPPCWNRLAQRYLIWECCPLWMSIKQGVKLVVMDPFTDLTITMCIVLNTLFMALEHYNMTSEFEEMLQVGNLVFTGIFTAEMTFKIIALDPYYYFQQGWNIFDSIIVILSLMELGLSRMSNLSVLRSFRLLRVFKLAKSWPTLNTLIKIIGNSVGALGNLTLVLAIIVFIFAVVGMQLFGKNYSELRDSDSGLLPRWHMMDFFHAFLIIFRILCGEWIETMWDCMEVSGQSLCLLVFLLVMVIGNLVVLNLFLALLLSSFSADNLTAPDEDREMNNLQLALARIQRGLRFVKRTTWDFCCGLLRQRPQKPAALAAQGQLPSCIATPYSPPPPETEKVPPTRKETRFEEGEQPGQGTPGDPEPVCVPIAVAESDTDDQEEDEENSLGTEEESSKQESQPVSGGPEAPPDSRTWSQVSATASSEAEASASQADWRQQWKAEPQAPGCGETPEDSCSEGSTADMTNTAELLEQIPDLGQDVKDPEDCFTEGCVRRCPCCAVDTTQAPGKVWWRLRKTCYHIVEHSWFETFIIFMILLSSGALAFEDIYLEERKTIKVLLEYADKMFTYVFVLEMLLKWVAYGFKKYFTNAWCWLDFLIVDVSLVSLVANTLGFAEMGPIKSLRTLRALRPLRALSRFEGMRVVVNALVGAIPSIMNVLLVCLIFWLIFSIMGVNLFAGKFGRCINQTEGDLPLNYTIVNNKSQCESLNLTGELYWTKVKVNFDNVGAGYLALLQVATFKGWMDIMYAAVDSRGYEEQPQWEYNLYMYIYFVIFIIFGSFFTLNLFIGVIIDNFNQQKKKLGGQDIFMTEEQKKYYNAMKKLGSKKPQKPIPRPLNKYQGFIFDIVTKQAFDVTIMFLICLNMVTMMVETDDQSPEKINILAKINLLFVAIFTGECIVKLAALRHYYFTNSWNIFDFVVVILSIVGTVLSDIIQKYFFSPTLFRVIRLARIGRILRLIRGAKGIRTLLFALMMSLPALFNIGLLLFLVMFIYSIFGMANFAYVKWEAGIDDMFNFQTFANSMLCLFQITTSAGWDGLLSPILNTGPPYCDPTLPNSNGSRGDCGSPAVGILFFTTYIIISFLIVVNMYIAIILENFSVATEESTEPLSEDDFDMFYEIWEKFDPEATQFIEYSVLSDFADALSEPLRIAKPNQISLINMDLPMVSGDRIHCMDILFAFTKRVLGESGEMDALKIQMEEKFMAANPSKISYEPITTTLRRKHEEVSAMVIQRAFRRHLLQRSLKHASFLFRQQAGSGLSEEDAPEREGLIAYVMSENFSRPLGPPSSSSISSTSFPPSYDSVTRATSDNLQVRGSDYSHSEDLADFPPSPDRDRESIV

One may read the IC50 as the concentration that gives 50% inhibition. Take `C[C@H]1CN(Cc2ccccc2)C[C@@H]1Nc1ccc(S(=O)(=O)Nc2nccs2)cc1Cl` (relative stereo) [Example 74, 4-((trans-1-benzyl-4-methylpyrrolidin-3-yl)amino)-3-chloro-N-(thiazol-2-yl)benzenesulfonamide]: the half-maximal inhibitory concentration (IC50) in data set [1] was determined as 1.54 µM; in data set [2], 0.025 µM; in data set [3], 1.03 µM; in data set [4] it was 0.167 µM; in data set [5], 8.67 µM.
For `O=S(=O)(Nc1nccs1)c1ccc(OC2CCN(Cc3cccc(C(F)F)c3)CC2)c(Cl)c1` [Example 11, 3-chloro-4-((1-(3-(difluoromethyl)benzyl)piperidin-4-yl)oxy)-N-(thiazol-2-yl)benzenesulfonamide], the 50% inhibitory concentration (IC50) in data set [1] came to 8.12 µM; in data set [2], 0.082 µM; in data set [3] it was 7.21 µM; in data set [4] it was 0.253 µM; in data set [5], 7.58 µM.
For `O=S(=O)(Nc1nccs1)c1ccc(O[C@@H]2C[C@H]3CC[C@@H](C2)N3Cc2ccccc2)c(Cl)c1` [Example 16, 4-(((1R,3s,5S)-8-benzyl-8-azabicyclo[3.2.1]octan-3-yl)oxy)-3-chloro-N-(thiazol-2-yl)benzenesulfonamide], the IC50 in data set [1] is 22.8 µM; in data set [2], 0.03 µM; in data set [3], above 10 µM; in data set [4], 0.429 µM; in data set [5] it was above 30 µM.
In the case of `CC1(Nc2ccc(S(=O)(=O)Nc3nccs3)cc2Cl)CN(Cc2ccccc2)C1` [Example 25, 4-((1-benzyl-3-methylazetidin-3-yl)amino)-3-chloro-N-(thiazol-2-yl)benzenesulfonamide 2,2,2-trifluoroacetate], the IC50 in data set [1] was 5.76 µM; in data set [2], 0.138 µM; in data set [3], above 10 µM; in data set [4], 0.569 µM; in data set [5] it was 24.7 µM.
The corresponding values for `CN(c1ccc(S(=O)(=O)Nc2nccs2)cc1Cl)[C@H]1CCN(Cc2cccc(Cl)c2)C1` [Example 27, (S)-3-chloro-4-((1-(3-chlorobenzyl)pyrrolidin-3-yl)(methyl)amino)-N-(thiazol-2-yl)benzenesulfonamide] are 3.73 µM, 0.07 µM, 3.41 µM, 0.437 µM and 6.9 µM.
As for `CN(c1ccc(S(=O)(=O)Nc2nccs2)cc1Cl)[C@H]1CCN(Cc2cccc(C(F)F)c2)C1` [Example 28, (S)-3-chloro-4-((1-(3-(difluoromethyl)benzyl)pyrrolidin-3-yl)(methyl)amino)-N-(thiazol-2-yl)benzenesulfonamide], the IC50 is 3.23 µM in data set [1]; 0.036 µM in data set [2]; 4.21 µM in data set [3]; 0.221 µM in data set [4]; 5.73 µM in data set [5].
In the case of `CN(c1ccc(S(=O)(=O)Nc2ncns2)cc1Cl)[C@H]1CCN(Cc2cc(Cl)ccc2F)C1` [Example 33, (S)-3-chloro-4-((1-(5-chloro-2-fluorobenzyl)pyrrolidin-3-yl)(methyl)amino)-N-(1,2,4-thiadiazol-5-yl)benzenesulfonamide 2,2,2-trifluoroacetate], the IC50 in data set [1] is 5.11 µM; in data set [2], 0.07 µM; in data set [3], above 10 µM; in data set [4], 0.041 µM; in data set [5] it was 7.79 µM.
On to `CCN(c1ccc(S(=O)(=O)Nc2ncns2)cc1Cl)[C@H]1CCN(Cc2ccccc2)C1` [Example 36, (S)-4-((1-benzylpyrrolidin-3-yl)(ethyl)amino)-3-chloro-N-(1,2,4-thiadiazol-5-yl)benzenesulfonamide], for which the IC50 in data set [1] is above 30 µM; in data set [2] it was 0.685 µM; in data set [3] it was above 10 µM; in data set [4] it was 0.615 µM; in data set [5], above 30 µM.
For the compound `CN(c1cc(F)c(S(=O)(=O)Nc2cccc(F)n2)cc1Cl)[C@H]1CCN(Cc2ccccc2)C1` [Example 40, (S)-4-((1-benzylpyrrolidin-3-yl)(methyl)amino)-5-chloro-2-fluoro-N-(6-fluoropyridin-2-yl)benzenesulfonamide bis(trifluoroacetic acid) salt], the IC50 in data set [1] was 6.79 µM; in data set [2], 3.88 µM; in data set [3], above 10 µM; in data set [4], 3.25 µM; in data set [5], 15.8 µM.
As for `CN(c1ccc(S(=O)(=O)Nc2cscn2)cc1Cl)[C@H]1CCN(Cc2ccccc2)C1` [Example 41, (S)-4-((1-benzylpyrrolidin-3-yl)(methyl)amino)-3-chloro-N-(thiazol-4-yl)benzenesulfonamide 2,2,2-trifluoroacetate], the half-inhibitory concentration (IC50) is 6.64 µM in data set [1]; 0.748 µM in data set [2]; above 10 µM in data set [3]; 1.04 µM in data set [4]; 9.01 µM in data set [5].
As to `C[C@H](c1ccccc1)N1CC[C@H](N(C)c2ccc(S(=O)(=O)Nc3nccs3)cc2Cl)C1` [Example 44, 3-chloro-4-(methyl((S)-1-((R)-1-phenylethyl)pyrrolidin-3-yl)amino)-N-(thiazol-2-yl)benzenesulfonamide], the half-inhibitory concentration (IC50) in data set [1] was 10.7 µM; in data set [2], 0.089 µM; in data set [3], above 10 µM; in data set [4] it was 0.1 µM; in data set [5], above 30 µM.
Turning to `C[C@H](c1ccccc1)N1CCC(Oc2ccc(S(=O)(=O)Nc3cscn3)cc2Cl)CC1` [Example 57, (R)-3-chloro-4-((1-(1-phenylethyl)piperidin-4-yl)oxy)-N-(thiazol-4-yl)benzenesulfonamide 2,2,2-trifluoroacetate], the IC50 in data set [1] is 13.7 µM; in data set [2] it was 0.268 µM; in data set [3], above 10 µM; in data set [4] it was 0.97 µM; in data set [5] it was 5.25 µM.
Take `CC(C)(c1ccccc1)N1CCC(Oc2ccc(S(=O)(=O)Nc3nccs3)cc2Cl)CC1` [Example 59, 3-chloro-4-((1-(2-phenylpropan-2-yl)piperidin-4-yl)oxy)-N-(thiazol-2-yl)benzenesulfonamide 2,2,2-trifluoroacetate]: the IC50 was 7.44 µM in data set [1]; 0.092 µM in data set [2]; 9.91 µM in data set [3]; 0.255 µM in data set [4]; 7.44 µM in data set [5].
On to `CC1(Nc2ccc(S(=O)(=O)Nc3nccs3)cc2Cl)CCN(Cc2ccccc2)C1` (centres unmarked) [Example 61, 4-((1-benzyl-3-methylpyrrolidin-3-yl)amino)-3-chloro-N-(thiazol-2-yl)benzenesulfonamide], for which the concentration for half-maximal inhibition (IC50) is 6.37 µM in data set [1]; 0.137 µM in data set [2]; above 10 µM in data set [3]; 0.176 µM in data set [4]; 6.96 µM in data set [5].
Take `CN(c1ccc(S(=O)(=O)Nc2cscn2)cc1Cl)[C@H]1CCN(C(C)(C)c2ccccc2)C1` [Example 62, (S)-3-chloro-4-(methyl(1-(2-phenylpropan-2-yl)pyrrolidin-3-yl)amino)-N-(thiazol-4-yl)benzenesulfonamide]: the IC50 was 4.24 µM in data set [1]; 0.15 µM in data set [2]; 6.55 µM in data set [3]; 0.536 µM in data set [4]; 4.53 µM in data set [5].
Take `O=S(=O)(Nc1nccs1)c1ccc(OC2CCN(Cc3ccccn3)CC2)c(Cl)c1` [Example 65, 3-chloro-4-((1-(pyridin-2-ylmethyl)piperidin-4-yl)oxy)-N-(thiazol-2-yl)benzenesulfonamide]: the concentration for half-maximal inhibition (IC50) is above 30 µM in data set [1]; 0.839 µM in data set [2]; above 10 µM in data set [3]; 0.552 µM in data set [4]; 29.7 µM in data set [5].

(Values after patent US10246453B2, “Benzenesulfonamide compounds and their use as therapeutic agents” (Xenon Pharmaceuticals Inc., priority 2016, dated 2019).)
